The term MIC denotes the smallest concentration in the dilution series that meets the test's criterion for growth inhibition.

Results on five molecules are retold here after patent US12186283B2, “Bismuth-thiol compositions and methods of use” (Microbion Corporation, priority 2018, dated 2025).

In one assay the test system is N. gonorrhoeae. The conditions noted are these: N. gonorrhoeae MMX 683 (ATCC 49226); cited from earlier work.
A further assay relates to Clostridium difficile. The conditions noted are these: C. difficile MMX 4381 (ATCC 700057), CC^I; cited from earlier work.
The test system of assay [1] is beta-hemolytic streptococci (S. pyogenes, S. agalactiae). The experiment in a line: Broth microdilution MIC (Example 11). The format is cell-based, Streptococcus pyogenes, Streptococcus agalactiae. The conditions noted are these: read-out: MIC.
Assay [2] concerns Pseudomonas aeruginosa. The conditions noted are these: P. aeruginosa MMX 103 (ATCC 27853); cited from earlier work.
Assay [3] concerns S. pneumoniae (pneumococci). The conditions noted are these: S. pneumoniae MMX 6837 (ATCC 49619); cited from earlier work.
For assay [4], the system named is Escherichia coli. The conditions noted are these: E. coli MMX 102 (ATCC 25922); cited from earlier work.
Another assay concerns P. aeruginosa. The experiment in a line: Checkerboard FIC assay, BisEDT with CF agents (Example 10). The class given is cell-based, Pseudomonas aeruginosa. The conditions noted are these: for MICB: Meropenem MIC in combination with BisEDT.
Assay [5] has as its system Burkholderia cepacia complex. Described as above. The format is cell-based, Burkholderia spp.
Assay [6] concerns Enterococcus spp. (E. faecalis, E. faecium). The experiment in a line: Broth microdilution MIC (Example 11). The format is cell-based. The conditions noted are these: VRE, VRE, LevR, CipR, EryR. A general note: Dilution methods test growth across graded concentrations, often in twofold steps.
Another assay concerns Bacteroides fragilis. The conditions noted are these: B. fragilis MMX 123 (ATCC 25285); cited from earlier work.
The next assay deals with Klebsiella pneumoniae. The experiment in a line: Broth microdilution MIC (Example 11). The format is cell-based.
Assay [7] has as its system Pseudomonas aeruginosa. Nature of the assay: Broth microdilution MIC (Example 11). The class given is cell-based.
Assay [8] concerns Staphylococcus aureus (MRSA). The conditions noted are these: S. aureus MMX 101 (ATCC 29213); cited from earlier work.
The test system of another assay is Enterobacter cloacae. The experiment in a line: Broth microdilution MIC (Example 11). The class given is cell-based. The conditions noted are these: E. cloacae MMX 5981 (ATCC BAA-2468); NDM-1, LevR, MEMR, CAZR, GmR.
The subject of assay [9] is Staphylococcus aureus (MRSA). The experiment in a line: Broth microdilution MIC (Example 11). The class given is cell-based.
The subject of assay [10] is Escherichia coli. Nature of the assay: Broth microdilution MIC (Example 11). The class given is cell-based.
Another assay deals with Acinetobacter baumannii. Nature of the assay: Broth microdilution MIC (Example 11). The format is cell-based.
Setting [11] is: P. aeruginosa 6322, Meropenem in combination with BisEDT, checkerboard rows C-G.

≈ marks a conversion by molar mass, not a printed value. Where “and” joins values, the source holds several entries; their conditions need not be identical. Equal values may be shown once. Read-outs that look alike come from different tables or passages of the source.

In the case of `CO/N=C(\C(=O)N[C@@H]1C(=O)N2C(C(=O)O)=C(CSc3nc(=O)c(=O)[nH]n3C)CS[C@H]12)c1csc(N)n1` [Ceftriaxone], in the assay with N. gonorrhoeae, the “MIC, CLSI QC range” value is “(0.004-0.015) μg/mL”.

`CCc1c(Cl)c(O)c(Cl)c(O)c1C(=O)O[C@H]1[C@H](O)[C@H](OC)[C@H](OC/C2=C\C=C\C[C@H](O)/C(C)=C/[C@H](CC)[C@@H](O[C@@H]3OC(C)(C)[C@@H](OC(=O)C(C)C)[C@H](O)[C@@H]3O)/C(C)=C/C(C)=C/C[C@@H]([C@@H](C)O)OC2=O)O[C@@H]1C` [Fidaxomicin]: the “MIC, CLSI QC range” value in the assay on Clostridium difficile was “(0.06-0.25) pg/mL”.

`C[C@@H](O)[C@H]1C(=O)N2C(C(=O)O)=C(S[C@@H]3CN[C@H](C(=O)N(C)C)C3)[C@H](C)[C@H]12` [Meropenem, reference compound]: the MIC in assay [1] (S. agalactiae MMX 3741, ERY^R CC^R) came to 0.03 µg/mL (≈ 0.0782 µM); in assay [1] (S. agalactiae MMX 3743, ERY^R CC^R), 0.06 µg/mL (≈ 0.156 µM); in assay [1] (S. agalactiae MMX 4077, ERY^R CC^R), 0.06 µg/mL (≈ 0.156 µM); in assay [1] (S. agalactiae MMX 4079, ERY^R CC^R Pen^R MEM^R), 8 µg/mL (≈ 20.9 µM); in assay [1] (S. agalactiae MMX 4086, ERY^R CC^R), 0.06 µg/mL (≈ 0.156 µM); in assay [5] (B. multivorans 1795, Meropenem alone, panel with BisEDT, read-out: Drug B MIC) it was 4 µg/mL. Further, in assay [6] (Enterococcus faecium, E. faecium MMX 485, vanA, read-out: MIC), the MIC was more than 64 µg/mL. The “CLSI QC range (MIC)” value is on record as “(0.25-1)” in the assay with Pseudomonas aeruginosa [2] and “(0.008-0.06) μg/mL” in the assay on Escherichia coli [4]. Moreover, the “MIC, CLSI QC range” value in assay [3] is listed as “(0.06-0.25) μg/mL”. Further, the FICB with P. aeruginosa (setting [11]) is 1; with P. aeruginosa (P. aeruginosa 8798, Meropenem FIC in combination with BisEDT, per checkerboard row), 1; in the assay on P. aeruginosa (P. aeruginosa 9108, Meropenem FIC in combination with BisEDT, per checkerboard row), 1; in [5] (B. cenocepacia 548, FIC of Meropenem in combination with BisEDT), 1; in [5] (B. cenocepacia 813, FIC of Meropenem in combination with BisEDT), 1; in assay [5] (B. cepacia 546, Meropenem FIC in combination with BisEDT, per checkerboard row), 1 and 2. In addition, the FICB in assay [5] (B. cepacia 1793, Meropenem FIC in combination with BisEDT, per checkerboard row) is 2 and 4. The “MICB (Drug B concentration in combination)” value with P. aeruginosa (setting [11]) is 16 µg/mL. For the same molecule, the MICB in the assay on P. aeruginosa (P. aeruginosa 8798, per checkerboard row) is 32 µg/mL; in the assay on P. aeruginosa (P. aeruginosa 9108, per checkerboard row), 1 µg/mL; in assay [5] (B. cenocepacia 548, MIC of Meropenem in combination with BisEDT), 4 µg/mL; in assay [5] (B. cepacia 546, Meropenem MIC in combination with BisEDT, per checkerboard row) it was 4 µg/mL and 8 µg/mL; in assay [5] (B. cepacia 1793, Meropenem MIC in combination with BisEDT, per checkerboard row), 8 µg/mL and 16 µg/mL; in assay [5] (B. multivorans 1795, MIC of Meropenem in combination with BisEDT) it was 4 µg/mL.

Regarding `Cc1ncc([N+](=O)[O-])n1CCO` [Metronidazole], the “MIC, CLSI QC range” value in the assay on Clostridium difficile was “(0.12-0.5) pg/mL”; in the assay with Bacteroides fragilis, “(0.25-1) pg/mL”.

Regarding Gentamicin, the minimum inhibitory concentration (MIC) in the assay on Klebsiella pneumoniae (K. pneumoniae MMX 4622, KPC-2, MEMR, CAZR) is 0.25 µg/mL; in the assay on Klebsiella pneumoniae (K. pneumoniae MMX 4623, KPC-2, MEMR, CAZR, GMR) it was 64 µg/mL; against Klebsiella pneumoniae (K. pneumoniae MMX 4653, KPC-3, LevR, MEMR, CAZR), 1 µg/mL; with Klebsiella pneumoniae (K. pneumoniae MMX 4683, KPC-2, LevR, MEMR, CAZR), 1 µg/mL; with Klebsiella pneumoniae (K. pneumoniae MMX 4684, ESBL, MEMR), 0.25 µg/mL; against Klebsiella pneumoniae (K. pneumoniae MMX 4685, ESBL, LevR, MEMR, CAZR), 1 µg/mL. Further, the MIC against Klebsiella pneumoniae (K. pneumoniae MMX 4694, KPC-3, LevR, MEMR, CAZR) is 8 µg/mL; against Klebsiella pneumoniae (K. pneumoniae MMX 5979, NDM-1, LevR, MEMR, CAZR, GmR), more than 64 µg/mL; against Pseudomonas aeruginosa [7] (P. aeruginosa MMX 103 (ATCC 27853), QC) it was 1 µg/mL; in the assay on Pseudomonas aeruginosa [7] (P. aeruginosa MMX 1381, MDR, LevR, CipR, MEMR, CAZR) it was 8 µg/mL; against Pseudomonas aeruginosa [7] (P. aeruginosa MMX 2562, MDR, LevR, CipR, MEMR, CAZR), 8 µg/mL; against Pseudomonas aeruginosa [7] (P. aeruginosa MMX 3991, MDR, LevR, CipR, MEMR, CAZR), 4 µg/mL. The MIC in the assay with Pseudomonas aeruginosa [7] (P. aeruginosa MMX 4654, IMP-7, LevR, CipR, MEMR, CAZR) is more than 64 µg/mL; against Pseudomonas aeruginosa [7] (P. aeruginosa MMX 4697, VIM-2, LevR, CipR, MEMR, CAZR), 4 µg/mL; against Enterobacter cloacae, more than 64 µg/mL; in [9] (S. aureus MMX 101 (ATCC 29213), QC, MSSA), 0.12 µg/mL; in assay [9] (S. aureus MMX 5373, MRSA, LevR, CipR, CCR, EryR, OxR), 0.25 µg/mL; in [9] (S. aureus MMX 6311, MRSA, LevR, CipR, CCR, EryR, OxR), 0.25 µg/mL. Further, the MIC was 0.12 µg/mL in assay [9] (S. aureus MMX 9203, MRSA, LevR, CipR, EryR, OxR); 0.25 µg/mL in assay [9] (S. aureus MMX 9204, MRSA, LevR, CipR, EryR, OxR); 0.25 µg/mL in assay [9] (S. aureus MMX 9205, MRSA, LevR, CipR, CCR, EryR, OxR); 1 µg/mL in the assay with Escherichia coli [10] (E. coli MMX 102 (ATCC 25922), QC); more than 64 µg/mL against Escherichia coli [10] (E. coli MMX 5980 (ATCC BAA-2469), NDM-1, LevR, MEMR, CAZR, GmR); 64 µg/mL against Escherichia coli [10] (E. coli MMX 8423, ESBL, LevR, CAZR, GmR). Also, the MIC against Escherichia coli [10] (E. coli MMX 8424, ESBL, CAZR) was 0.25 µg/mL; in the assay with Escherichia coli [10] (E. coli MMX 8425, ESBL, LevR, CAZR, GmR) it was more than 64 µg/mL; in assay [6] (E. faecalis MMX 8960) it was more than 64 µg/mL; in assay [6] (E. faecalis MMX 8961), 8 µg/mL; in assay [6] (E. faecalis MMX 8962) it was more than 64 µg/mL; in assay [6] (E. faecium MMX 485, vanA) it was more than 64 µg/mL. Further, the MIC in assay [6] (E. faecium MMX 752, vanA) was more than 64 µg/mL; with Acinetobacter baumannii (A. baumannii MMX 2592, MDR, LevR, CipR, MEMR, CAZR, GmR), more than 64 µg/mL; with Acinetobacter baumannii (A. baumannii MMX 2593, MDR, LevR, CipR, MEMR, CAZR, GmR), more than 64 µg/mL; in the assay on Acinetobacter baumannii (A. baumannii MMX 3372, MDR, CipR, MEMI, CAZI), 0.5 µg/mL; in the assay on Acinetobacter baumannii (A. baumannii MMX 3373, Sensitive) it was 0.12 µg/mL; against Acinetobacter baumannii (A. baumannii MMX 4651 (NCTC 13304), MDR, OXA-27, LevR, CipR, MEMR, CAZR, GmI), 8 µg/mL. In addition, the “CLSI QC range (MIC)” value is “(0.5-2)” in the assay on Pseudomonas aeruginosa [2], “(0.12-1) μg/mL” in assay [8] and “(0.25-1) μg/mL” with Escherichia coli [4].
